In patent publication US10071095B2, “1,2,4-triazolo [4,3-A] pyridine derivatives and their use for the treatment of neurological and psychiatric disorders” (JANSSEN PHARMACEUTICALS, INC., priority 2009, dated 2018):

biological target: T1, human mGluR2 receptor (Homo sapiens, UniProt Q14416); test: [35S]GTPγS binding assay, positive allosteric modulation (GTPγS-PAM) in presence of EC20 glutamate; type: biochemical; details: in presence of glutamate at EC20; average pEC50 if more experiments; ‡ means tested once
T1 construct: expressed in transfected cells; host or cells: CHO cells
T1 sequence (Q14416 19-872): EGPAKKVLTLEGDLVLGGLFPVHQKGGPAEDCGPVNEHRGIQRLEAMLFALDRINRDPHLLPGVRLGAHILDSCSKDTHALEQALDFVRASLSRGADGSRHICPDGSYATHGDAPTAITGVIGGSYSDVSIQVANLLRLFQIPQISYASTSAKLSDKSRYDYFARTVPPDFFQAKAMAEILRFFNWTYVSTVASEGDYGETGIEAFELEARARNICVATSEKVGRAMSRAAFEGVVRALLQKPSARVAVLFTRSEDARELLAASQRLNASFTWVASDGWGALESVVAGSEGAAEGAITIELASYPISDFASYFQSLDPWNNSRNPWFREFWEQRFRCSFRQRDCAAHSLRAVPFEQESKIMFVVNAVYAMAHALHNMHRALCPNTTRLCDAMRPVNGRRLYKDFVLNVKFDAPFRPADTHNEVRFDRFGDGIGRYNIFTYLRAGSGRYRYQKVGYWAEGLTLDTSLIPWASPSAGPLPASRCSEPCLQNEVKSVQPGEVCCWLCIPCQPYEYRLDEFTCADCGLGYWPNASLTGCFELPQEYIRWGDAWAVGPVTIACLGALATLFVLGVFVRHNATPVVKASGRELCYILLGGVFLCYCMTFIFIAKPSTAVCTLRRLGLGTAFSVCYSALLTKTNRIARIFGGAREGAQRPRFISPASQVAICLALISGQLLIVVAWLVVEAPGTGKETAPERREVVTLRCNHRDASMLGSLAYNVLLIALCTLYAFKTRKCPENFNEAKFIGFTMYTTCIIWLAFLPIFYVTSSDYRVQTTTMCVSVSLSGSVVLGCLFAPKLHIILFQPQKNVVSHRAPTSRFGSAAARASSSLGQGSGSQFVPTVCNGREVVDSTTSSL
Experimental: [^35S]GTPγS Binding Assay
The [^35S]GTPγS binding assay is a functional membrane-based assay used to study G-protein coupled receptor (GPCR) function whereby incorporation of a non-hydrolysable form of GTP, [^35S]GTPγS (guanosine 5′-triphosphate, labelled with […] ^35S), is measured. The G-protein α subunit catalyzes the exchange of guanosine 5′-diphosphate (GDP) by guanosine triphosphate (GTP) and on activation of the GPCR by an agonist, [^35S]GTPγS, becomes incorporated and cannot be cleaved to continue the exchange cycle (Harper (1998) Current Protocols in Pharmacology 2.6.1-10, John Wiley & Sons, Inc.). […] Here we describe the use of the [^35S]GTPγS binding assay using membranes from cells transfected with the human mGluR2 receptor and adapted from Schaffhauser et al. ((2003) Molecular Pharmacology 4:798-810) for the detection of the positive allosteric modulation (PAM) properties of the compounds of this invention.
CHO-cells were cultured to pre-confluence and stimulated with 5 mM butyrate for 24 h, prior to washing in PBS, and then collected by scraping in homogenisation buffer (50 mM Tris-HCl buffer, pH 7.4, 4° C.). Cell lysates were homogenized briefly using an ultra-turrax homogenizer. The homogenate was centrifuged at 16,000 RPM (Sorvall RC-5C plus rotor SS-34) for 10 minutes and the supernatant discarded. The pellet was resuspended in 5 mM Tris-HCl, pH 7.4 and centrifuged again (18,000 RPM, 20 min, 4° C.). The final pellet was resuspended in 50 mM Tris-HCl, pH 7.4 and stored at −80° C. in appropriate aliquots before use. Protein concentration was determined by the Bradford method (Bio-Rad, USA) with bovine serum albumin as standard.
Measurement of mGluR2 positive allosteric modulatory activity of test compounds was performed as follows. Test compounds and glutamate were diluted in assay buffer containing 10 mM HEPES acid, 10 mM HEPES salt, pH 7.4, 100 mM NaCl, 3 mM MgCl2 and 10 μM GDP. Human mGlu2 receptor-containing membranes were thawed on ice and diluted in assay buffer supplemented with 14 μg/ml saponin. Membranes were pre-incubated with compound alone or together with a predefined (˜EC20) concentration of glutamate (PAM assay) for 30 min at 30° C. After addition of [^35S]GTPγS (f.c. 0.1 nM) microplates were shaken briefly and further incubated to allow [^35S]GTPγS incorporation on activation (30 minutes, 30° C.). Final assay mixtures contained 7 μg of membrane protein in 10 mM HEPES acid, 10 mM HEPES salt, pH 7.4, 100 mM NaCl, 3 mM MgCl2, 10 µM GDP and 10 μg/ml saponin. Total reaction volume was 200 μl. Reactions were terminated by rapid filtration through Unifilter-96 GF/B filter plates (Packard, Meriden, Conn.) using a 96-well Packard filtermate harvester. Filters were washed 6 times with ice-cold 10 mM NaH2PO4/10 mM Na2HPO4, pH 7.4. Filters were then air-dried, and 40 μl of liquid scintillation cocktail (Microscint-O) was added to each well. Membrane-bound radioactivity was counted in a Microplate Scintillation and Luminescence Counter from Packard.
The concentration-response curves of representative compounds of the present invention-obtained in the presence of EC20 of mGluR2 agonist glutamate to determine positive allosteric modulation (PAM)—were generated using the Lexis software interface (developed at J&J).

Compound	GTPγS - hR2 PAM pEC50
Clc1c(N2CCC(c3ccccc3)CC2)ccn2c(CCC3CC3)nnc12 [compound 146]	7.02
O=C1OC2(CCN(c3ccn4c(CC5CC5)nnc4c3Cl)CC2)c2ccccc21 [compound 149]	6.5‡
CC(C)OCc1nnc2c(C(F)(F)F)c(N3CCC(Oc4ccccn4)CC3)ccn12 [compound 150]	6.97‡
FC(F)(F)c1c(N2CC[C@H](Oc3ccccc3)C2)ccn2c(CC3CC3)nnc12 [compound 152]	6.78
Cc1c(N2CCC3(CC2)OC(C)(C)c2ccccc23)ccn2c(CC3CC3)nnc12 [compound 154]	7.13
CC(C)OCc1nnc2c(C(F)(F)F)c(N3CCN(c4ccccc4)CC3)ccn12 [compound 155]	6.83‡
Clc1c(N2CCN(c3coc4ccccc34)CC2)ccn2c(CC3CC3)nnc12 [compound 157]	6.18
FC(F)(F)C1(OCc2cccnc2)CCN(c2ccn3c(CC4CC4)nnc3c2Cl)CC1 [compound 158]	6.14
Clc1c(N2CCC3(CC2)COc2cccnc23)ccn2c(CC3CC3)nnc12 [compound 161]	5.68‡
Cc1cccnc1OC1CCN(c2ccn3c(COC(C)C)nnc3c2C(F)(F)F)CC1 [compound 162]	6.93
FC(F)(F)C(c1ccccc1)N1CCN(c2ccn3c(CC4CC4)nnc3c2Cl)CC1 (stereo not shown) [compound 163]	6.97‡
Clc1c(N2CCN(C3COc4ccccc4C3)CC2)ccn2c(CC3CC3)nnc12 (stereo not shown) [compound 164]	6.46
Cc1cc(OC2CCN(c3ccn4c(CC5CC5)nnc4c3C(F)(F)F)CC2)ccn1 [compound 165]	6.41
Fc1ccc(N2C[C@@H]3CN(c4ccn5c(CC6CC6)nnc5c4C(F)(F)F)C[C@@H]3C2)c(F)c1 [compound 166]	7.22
FC(F)(F)c1c(N2CCC(Oc3cccnc3)CC2)ccn2c(CC3CC3)nnc12 [compound 167]	6.47‡
CC1CN(c2ccn3c(CC4CC4)nnc3c2Cl)CCC1c1ccccc1 (stereo not shown) [compound 168]	7.22
CC1CN(c2ccn3c(CC4CC4)nnc3c2C(F)(F)F)CCC1c1ccccc1 (stereo not shown) [compound 169]	7.77‡
Clc1c(N2CCC(Oc3cccnc3)CC2)ccn2c(CC3CC3)nnc12 [compound 170]	5.84‡
Clc1c(N2CCC(c3ccccc3)C2)ccn2c(CC3CC3)nnc12 (stereo not shown) [compound 173]	6.32‡
FC(F)(F)c1c(N2CCC(c3ccccc3)C2)ccn2c(CC3CC3)nnc12 (stereo not shown) [compound 174]	5.91‡
FC(F)(F)c1c(N2CCC(Nc3ccccc3)CC2)ccn2c(CC3CC3)nnc12 [compound 175]	6.33
Fc1ccccc1NC1CCN(c2ccn3c(CC4CC4)nnc3c2Cl)CC1 [compound 176]	6.3
CC(C)(C)Cc1nnc2c(C(F)(F)F)c(N3CCC(c4ccccc4)CC3)ccn12 [compound 177]	7.67
Fc1cc(F)cc(CN2CCN(c3ccn4c(CC5CC5)nnc4c3Cl)CC2)c1 [compound 179]	5.79‡
Fc1ccccc1NC1CCN(c2ccn3c(CC4CC4)nnc3c2C(F)(F)F)CC1 [compound 183]	7.08

Compound	GTPγS - hR2 PAM pEC50
FC(F)(F)c1c(N2CCC(c3ccccc3)CC2)ccn2c(CC3CCC3)nnc12 [compound 185]	8.26
Fc1ccc(N2C[C@@H]3CN(c4ccn5c(CC6CC6)nnc5c4Cl)C[C@@H]3C2)c(F)c1 [compound 186]	7.27
Cc1c(N2CCC(c3ccccc3)(C(F)(F)F)CC2)ccn2c(CC3CC3)nnc12 [compound 187]	6.19
Fc1ccc(N2CCCC3(C2)CN(c2ccn4c(CC5CC5)nnc4c2C(F)(F)F)C3)c(F)c1 [compound 188]	8‡
Fc1ccccc1NC1CN(c2ccn3c(CC4CC4)nnc3c2C(F)(F)F)C1 [compound 189]	6.4
Fc1ccccc1NC1CN(c2ccn3c(CC4CC4)nnc3c2Cl)C1 [compound 190]	6.5
C[C@H]1CN(c2ccn3c(CC(F)(F)F)nnc3c2Cl)CCN1c1cc(F)cc(F)c1 [compound 191]	6.76
C[C@@H]1CN(c2ccn3c(CC(F)(F)F)nnc3c2Cl)CCN1c1cc(F)cc(F)c1 [compound 192]	6.63
CC1(c2ccccc2F)CCN(c2ccn3c(CC4CC4)nnc3c2C(F)(F)F)CC1 [compound 193]	8.26
CC1(c2ccc(F)cc2)CCN(c2ccn3c(CC4CC4)nnc3c2C(F)(F)F)CC1 [compound 194]	7.69
Fc1ccc(C2CCN(c3ccn4c(CC5CC5)nnc4c3C(F)(F)F)CC2)c(F)c1 [compound 195]	7.98
Fc1ccc(N2CCN(c3ccn4c(CC5CC5)nnc4c3C(F)(F)F)CC2)c(F)c1 [compound 196]	7.06
CC1(c2cccc(F)c2)CCN(c2ccn3c(CC4CC4)nnc3c2C(F)(F)F)CC1 [compound 197]	7.82‡
FC(F)(F)c1c(N2CCC(c3cccnc3)CC2)ccn2c(CC3CC3)nnc12 [compound 198]	6.29‡
Cc1cc(C2CCN(c3ccn4c(CC5CC5)nnc4c3C(F)(F)F)CC2)ccn1 [compound 199]	6.8
Fc1ccc(N2CC3(CCN(c4ccn5c(CC6CC6)nnc5c4C(F)(F)F)CC3)C2)c(F)c1 [compound 201]	6.9
Fc1ccc(N2CCC3(CCN(c4ccn5c(CC6CC6)nnc5c4C(F)(F)F)CC3)C2)c(F)c1 [compound 202]	7.86‡
Fc1ccc(NC2CCN(c3ccn4c(CC5CC5)nnc4c3C(F)(F)F)CC2)c(F)c1 [compound 203]	6.73
N#Cc1c(N2CCC(c3ccccc3)CC2)ccn2c(-c3ccccc3)nnc12 [compound 205]	6.61‡
Fc1ccc(N2CC3(CCN(c4ccn5c(CC6CC6)nnc5c4Cl)CC3)C2)c(F)c1 [compound 210]	6.5
O=C1N(c2ccc(F)cc2F)CC12CCN(c1ccn3c(CC4CC4)nnc3c1Cl)CC2 [compound 213]	6.03‡
Fc1ccc(CN2CCN(c3ccn4c(CC5CC5)nnc4c3Cl)CC2)c(F)c1 [compound 215]	5.6‡
FC(F)(F)c1c(N2CCN(CCc3ccccc3)CC2)ccn2c(CC3CC3)nnc12 [compound 216]	6.68
FC(F)(F)c1cccc(CN2CCN(c3ccn4c(CC5CC5)nnc4c3Cl)CC2)c1 [compound 218]	6.05‡
FC(F)(F)C1CCC(N2CCN(c3ccn4c(CC5CC5)nnc4c3Cl)CC2)CC1 (stereo not shown) [compound 223]	6.03‡

same assay, conditions: in presence of glutamate at EC20; average pEC50 if more experiments; ‡ means tested once; read-out: GTPγS - hR2 PAM pEC50 (converted)

Compound	EC50
FC(F)(F)c1c(N2CCC3(CC2)OC(F)(F)c2ccccc23)ccn2c(CC3CC3)nnc12 [compound 147, 1′-[3-cyclopropylmethyl-8-(trifluoromethyl)[1,2,4]triazolo[4,3-a]pyridin-7-yl]-3,3-difluoro-3H-spiro[benzo[c]furan-1,4′-piperidine]]	245 nM
CC1(C)OC2(CCN(c3ccn4c(CC5CC5)nnc4c3C(F)(F)F)CC2)c2ccc(F)cc21 [compound 200, 1′-[3-(Cyclopropylmethyl)-8-(trifluoromethyl)-1,2,4-triazolo[4,3-a]pyridin-7-yl]-5-fluoro-3,3-dimethyl-spiro[isobenzofuran-1(3H),4′-piperidine]]	3.55 nM
